Data from ChEMBL document CHEMBL5325415, “Falcipains: Biochemistry, target validation and structure-activity relationship studies of inhibitors as antimalarials” (Eur J Med Chem, 2023).
Values after ≈ are worked out from the molar mass of the structure shown. Values belong to the compound of their own block, whether it stands above or below them. *1 amine or outer side, *2 acyl side, *3 side chain or, on linkers, in order; H or OH if unused. Where a SMILES comes first, the peptide text is derived from it. [ ]: non-standard residue; d: D form. The star is where a group is joined. hPhe = N[C@@H](CCc1ccccc1)C(=O)O; Morpholide = C1CN(*)CCO1; CO = O=C([*:1])[*:2]; CH2F = FC*

Assays:
Falcipain 2 [1] = biological target: T1, Falcipain 2 (Plasmodium falciparum, UniProt Q9N6S8); assay: Inhibition of Plasmodium falciparum Itg2 trophozite extracts FP-2 using Z-phe-Arg-AMC as substrate pretreated with enzyme for 30 mins followed by substrate addition and measured for 30 mins by spectrofluorometry
T1 sequence (Q9N6S8 whole entry): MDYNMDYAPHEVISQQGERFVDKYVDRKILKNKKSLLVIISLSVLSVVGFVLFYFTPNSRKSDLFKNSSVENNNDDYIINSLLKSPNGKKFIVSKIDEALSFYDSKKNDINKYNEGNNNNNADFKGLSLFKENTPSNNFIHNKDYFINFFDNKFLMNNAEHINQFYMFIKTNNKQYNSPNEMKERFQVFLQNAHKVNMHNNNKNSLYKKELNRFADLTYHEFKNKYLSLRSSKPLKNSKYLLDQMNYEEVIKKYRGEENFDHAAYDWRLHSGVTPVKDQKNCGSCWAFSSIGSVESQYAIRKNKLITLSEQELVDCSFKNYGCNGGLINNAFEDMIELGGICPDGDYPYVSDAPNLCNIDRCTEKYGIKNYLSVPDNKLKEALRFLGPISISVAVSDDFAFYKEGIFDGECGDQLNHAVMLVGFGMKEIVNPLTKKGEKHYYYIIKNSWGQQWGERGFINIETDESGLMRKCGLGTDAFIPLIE

Falcipain 2 [2] = biological target: T1, Falcipain 2; assay: Inhibition of Plasmodium falciparum FP-2 using Z-Leu-Arg-AMC as substrate pretreated with enzyme for 30 mins followed by substrate addition and measured for 30 mins by spectrofluorometry
Falcipain 2 [3] = biological target: T1, Falcipain 2; assay: Inhibition of Plasmodium falciparum FP2 using ZFR-AMC as substrate preincubated with enzyme for 10 mins followed by substrate addition and measured for 30 mins by fluorimetric analysis
Plasmodium falciparum [4] = assay: Antiplasmodial activity against Plasmodium falciparum 3D7 infected in human erythrocytes assessed as growth inhibition measured after 52 hrs by SYBR green dye based assay; format: functional, organism-based; conditions: 3D7, Erythrocyte
[5] = biological target: T2, Falcipain 2 (Plasmodium falciparum) (UniProt Q9N6S8); assay: Inhibition of Plasmodium falciparum FP-2 using Z-Leu-Arg-AMC as substrate at 10 uM pretreated with enzyme for 30 mins followed by substrate addition and measured for 30 mins by spectrofluorometry; conditions: time 60.0 min
T2 sequence (whole entry): T1 sequence (Q9N6S8 whole entry)

Plasmodium falciparum [6] = assay: Antimalarial activity against chloroquine-resistant Plasmodium falciparum RKL9 infected in RBC measured after 24 to 30 hrs by microscopic analysis; format: functional, organism-based; conditions: RKL9, Erythrocyte
Plasmodium falciparum [7] = assay: Antimalarial activity against chloroquine-sensitive Plasmodium falciparum 3D7 infected in RBC measured after 24 to 30 hrs by microscopic analysis; format: functional, organism-based; conditions: 3D7, Erythrocyte
Falcipain 2 [8] = biological target: T1, Falcipain 2; assay: Inhibition of Plasmodium falciparum FP-2 using Cbz-Phe-Arg-AMC as substrate pretreated with enzyme for 10 mins followed by substrate addition and measured after 10 mins by fluorescence based analysis
Plasmodium falciparum [9] = assay: Antimalarial activity against Chloroquine-sensitive Plasmodium falciparum 3D7 infected in human erythrocytes assessed as inhibition of parasite growth incubated for 72 hrs by Giemsa staining based analysis; format: functional, organism-based; conditions: 3D7, Erythrocyte
Plasmodium falciparum [10] = assay: Antimalarial activity against Chloroquine-resistant Plasmodium falciparum RKL9 infected in human erythrocytes assessed as inhibition of parasite growth incubated for 72 hrs by Giemsa staining based analysis; format: functional, organism-based; conditions: RKL9, Erythrocyte
Falcipain 2 [11] = biological target: T1, Falcipain 2; assay: Inhibition of Plasmodium falciparum FP-2 using Z-Phe-Arg-AMC as substrate pretreated with enzyme for 10 mins followed by susbtrate addition and measured after 10 mins by fluorescence based analysis
Plasmodium falciparum [12] = assay: Antiplasmodial activity against Plasmodium falciparum HB3; format: functional, organism-based
Plasmodium falciparum [13] = assay: Antiplasmodial activity against Plasmodium falciparum W2; format: functional, organism-based
Plasmodium falciparum [14] = assay: Antiplasmodial activity against Plasmodium falciparum ItG; format: functional, organism-based
[15] = Inhibition of Plasmodium vinckei extracts VP-2 using Z-phe-Arg-AMC as substrate pretreated with enzyme for 30 mins followed by substrate addition and measured for 30 mins by spectrofluorometry
Plasmodium falciparum [16] = assay: Antiplasmodial activity against Plasmodium falciparum Dd2; format: functional, organism-based
Plasmodium falciparum [17] = assay: Antiplasmodial activity against Plasmodium falciparum D6; format: functional, organism-based
Falcipain 2 [18] = biological target: T1, Falcipain 2; assay: Inhibition of Plasmodium falciparum trophozite extracts FP-2

IC50 (Falcipain 2 [1]): 8000 nM
SMILES: Oc1ccc(-c2nccc3ccc(Cc4ccccc4)cc23)cc1

SMILES: Cc1ccc(NC(=O)N/N=C/c2ccc(O[C@H]3O[C@@H]4O[C@@]5(C)CC[C@H]6[C@H](C)CC[C@@H]([C@H]3C)[C@@]46OO5)cc2)c(C)c1
IC50 (Falcipain 2 [2]): 1030 nM

IC50 (Falcipain 2 [3]): 7370 nM
SMILES: CC(=O)Nc1ccc(S(=O)(=O)N2CCN(C(=O)c3cc(Cl)nc4ccccc34)CC2)cc1
EC50 (Plasmodium falciparum [4]): 1950 nM

inhibition [5]: 53%
IC50 (Falcipain 2 [2]): 11800 nM
SMILES: C=CCn1c(SCC(=O)Nc2sc3c(c2C(N)=O)CCC3)nc2scc(-c3cccc([N+](=O)[O-])c3)c2c1=O

SMILES: Cc1ccc(NC(=S)N/N=C/c2ccc(O[C@H]3O[C@@H]4O[C@@]5(C)CC[C@H]6[C@H](C)CC[C@@H]([C@H]3C)[C@@]46OO5)cc2)c(C)c1
IC50 (Falcipain 2 [2]): 1350 nM

IC50 (Falcipain 2 [3]): 2640 nM
SMILES: CC(=O)Nc1ccc(S(=O)(=O)N2CCN(C(=O)c3cc(-c4ccc(OC(F)(F)F)cc4)nc4ccccc34)CC2)cc1
EC50 (Plasmodium falciparum [4]): 1430 nM

IC50 (Falcipain 2 [1]): 3000 nM
SMILES: COc1cc2ccnc(-c3ccc(OCc4ccccc4)cc3)c2cc1OC

SMILES: C(=C\c1cn(-c2ccccc2)nc1-c1ccccc1)/c1nnc(-c2ccco2)o1
IC50 (Plasmodium falciparum [6]): 0.863 µg/mL (≈ 2.27 µM)
IC50 (Plasmodium falciparum [7]): 0.248 µg/mL (≈ 0.652 µM)
IC50 (Falcipain 2 [8]): 14000 nM

SMILES: Cc1ccc(-c2nn(-c3ccccc3)cc2/C=C/c2nnc(-c3ccc(Cl)cc3)o2)cc1
IC50 (Plasmodium falciparum [6]): 1.57 µg/mL (≈ 3.58 µM)
IC50 (Plasmodium falciparum [7]): 0.486 µg/mL (≈ 1.11 µM)
IC50 (Falcipain 2 [8]): 20000 nM

SMILES: CCOc1cccc(NC(=S)N/N=C/c2ccc(O[C@H]3O[C@@H]4O[C@@]5(C)CC[C@H]6[C@H](C)CC[C@@H]([C@H]3C)[C@@]46OO5)cc2)c1
IC50 (Falcipain 2 [2]): 520 nM

inhibition [5]: 92.7%
IC50 (Falcipain 2 [2]): 1460 nM
SMILES: NC(=O)c1c(NC(=O)CSc2nc3scc(-c4ccccc4)c3c(=O)n2C2CCCCC2)sc2c1CCC2

SMILES: Cc1ccc(-c2nn(-c3ccccc3)cc2/C=C/c2nnc(-c3ccc(Cl)cc3Cl)o2)cc1
IC50 (Plasmodium falciparum [6]): 0.902 µg/mL (≈ 1.91 µM)
IC50 (Plasmodium falciparum [7]): 0.486 µg/mL (≈ 1.03 µM)
IC50 (Falcipain 2 [8]): 110000 nM

SMILES: C[C@H]1[C@H](OC(=O)c2ccc(/C=N/NC(=O)Nc3ccccc3F)cc2)O[C@@H]2O[C@@]3(C)CC[C@H]4[C@H](C)CC[C@@H]1[C@@]24OO3
IC50 (Falcipain 2 [2]): 470 nM

IC50 (Falcipain 2 [3]): 26600 nM
SMILES: Cc1ccc(-n2cc(COc3ccnc4cc(Cl)ccc34)nn2)cc1
EC50 (Plasmodium falciparum [4]): 49500 nM

SMILES: N#C/C(=C\c1ccc(O)cc1)c1nc2ccccc2[nH]1
IC50 (Plasmodium falciparum [9]): 47600 nM

SMILES: O=C(N[C@H](Cc1c[nH]c2ccccc12)C(=O)NCc1ccccc1)Oc1ccccc1
inhibition [5]: 29.4%
IC50 (Falcipain 2 [2]): 29700 nM

SMILES: COc1cc(/C=C(\C#N)c2nc3ccccc3[nH]2)cc(OC)c1
IC50 (Plasmodium falciparum [9]): 1600 nM
IC50 (Plasmodium falciparum [10]): 14300 nM
IC50 (Falcipain 2 [11]): 3610 nM

IC50 (Plasmodium falciparum [12]): 0.44 nM
IC50 (Plasmodium falciparum [13]): 0.45 nM
IC50 (Plasmodium falciparum [14]): 0.6 nM
IC50 [15]: 200 nM
IC50 (Plasmodium falciparum [16]): 0.4 nM
IC50 (Plasmodium falciparum [17]): 0.58 nM
IC50 (Falcipain 2 [1]): 5 nM
SMILES: CC(C)C[C@H](NC(=O)N1CCN(C)CC1)C(=O)N[C@H](/C=C/S(=O)(=O)c1ccccc1)CCc1ccccc1

IC50 (Plasmodium falciparum [12]): 0.66 nM
IC50 (Plasmodium falciparum [13]): 0.81 nM
IC50 (Plasmodium falciparum [14]): 0.51 nM
IC50 (Falcipain 2 [18]): 3 nM
IC50 (Plasmodium falciparum [16]): 0.78 nM
IC50 (Plasmodium falciparum [17]): 0.9 nM
SMILES: O=C(CF)[C@H](CCc1ccccc1)NC(=O)[C@H](Cc1ccccc1)NC(=O)N1CCOCC1 ({Morpholide-CO}-Phe-[hPhe]-CH2F)

SMILES: C(=C\c1cn(-c2ccccc2)nc1-c1ccccc1)/c1nnc(-c2c[nH]c3ccccc23)o1
IC50 (Plasmodium falciparum [6]): 0.724 µg/mL (≈ 1.69 µM)
IC50 (Plasmodium falciparum [7]): 0.245 µg/mL (≈ 0.57 µM)
IC50 (Falcipain 2 [8]): 7000 nM

IC50 (Falcipain 2 [3]): 2140 nM
SMILES: COc1ccc(-c2cc(C(=O)N3CCN(S(=O)(=O)c4ccc(NC(C)=O)cc4)CC3)c3ccccc3n2)cc1
EC50 (Plasmodium falciparum [4]): 810 nM

IC50 (Plasmodium falciparum [12]): 1.6 nM
IC50 (Plasmodium falciparum [13]): 1.2 nM
IC50 (Plasmodium falciparum [14]): 1.03 nM
IC50 [15]: 200 nM
IC50 (Plasmodium falciparum [16]): 0.66 nM
IC50 (Plasmodium falciparum [17]): 1.51 nM
SMILES: CC(C)C[C@H](NC(=O)N1CCOCC1)C(=O)N[C@H](/C=C/S(=O)(=O)c1ccccc1)CCc1ccccc1

IC50 (Falcipain 2 [18]): 0.42 nM
SMILES: CC(C)C[C@H](NC(=O)N1CCOCC1)C(=O)N[C@@H](CCc1ccccc1)C(=O)CF ({Morpholide-CO}-Leu-[hPhe]-CH2F)

SMILES: COc1ccc(-n2cc(COc3ccnc4cc(Cl)ccc34)nn2)cc1
IC50 (Falcipain 2 [3]): 25400 nM
EC50 (Plasmodium falciparum [4]): 51700 nM

SMILES: Fc1ccc(-n2cc(COc3ccnc4cc(Cl)ccc34)nn2)cc1F
IC50 (Falcipain 2 [3]): 25600 nM
EC50 (Plasmodium falciparum [4]): 21900 nM

SMILES: Cc1cc(C)cc(NC(=O)N/N=C/c2ccc(C(=O)O[C@@H]3O[C@@H]4O[C@@]5(C)CC[C@H]6[C@H](C)CC[C@@H]([C@H]3C)[C@@]46OO5)cc2)c1
IC50 (Falcipain 2 [2]): 570 nM
